Experimental data taken from patent publication US20010053771A1, “USE OF GLUCOSAMINE AND CLUCOSAMINE DERIVATIVES FOR QUICK ALLEVIATION OF ITCHING OR LOCALIZED PAIN” (priority 1997, published 2001).

Tests used:
Type in all cases: in vivo, human
[1] = system: patient suffering from sore throat caused by β-hemolytic streptococci; test: Spray treatment of a patient with sore throat (Example 1)
Protocol: Glucosamine or one or more of its derivatives was added in the appropriate amount to one of the following formulations. The compositions thus obtained were tested as described in the Examples. All percentages are by weight (w/w) unless otherwise indicated. A patient suffering from sore throat caused by β-hemolytic streptococci was treated with a water solution (formulation 1) of N-acetyl-glucosamine (8% w/w). The solution was sprayed into the mouth during 10 seconds in order to treat the infected area. Pain relief occurred already 20 seconds after application and lasted for at least 1,5 hour. 12 hours later the same patient was treated with spray containing glucosamine HCl (9% w/w and 20% glycerol and 10% alcohol in water). Pain relief occurred again very quickly, 36 seconds after, application and lasted for at least 2 hours.

[2] = system: patient with a tendinitis due to the practice of bowling sport; test: Topical treatment of tendinitis due to bowling (Example 6); details: 6% (w/w) in composition 3
Protocol: Glucosamine or one or more of its derivatives was added in the appropriate amount to one of the following formulations. The compositions thus obtained were tested as described in the Examples. All percentages are by weight (w/w) unless otherwise indicated.
A patient with a tendinitis due to the practice of bowling sport was treated 2 days after the onset of pain with composition 3 containing 6% (w/w) N-acetyl D-glucosamine. Pain relief occurred 25 seconds later.

[3] = system: child suffering from diaper allergy; test: Topical treatment of diaper allergy (Example 5); details: 5% (w/w) in composition 2; applications for 1 week, 3 times a day; male, 8 months
Protocol: Glucosamine or one or more of its derivatives was added in the appropriate amount to one of the following formulations. The compositions thus obtained were tested as described in the Examples. All percentages are by weight (w/w) unless otherwise indicated. […]

[4] = system: patient with allergy for cats; test: Topical treatment of itching from cat allergy (Example 7); details: 5% (w/w) in composition 3
Protocol: Glucosamine or one or more of its derivatives was added in the appropriate amount to one of the following formulations. The compositions thus obtained were tested as described in the Examples. All percentages are by weight (w/w) unless otherwise indicated. A patient with allergy for cats (person) was confronted with a stroked cat (2 years old) in a closed room (6 m×4 m×3 m) during 10 minutes. 8 minutes later itching started all over the forehead and progressed after 15 minutes to the nose (external×internal). The patient was treated on the left side of the forehead with composition 3 and on the right side of the forehead with composition 3 containing 5% (w/w) glucosamine HCl. Itching completely disappeared after 45 seconds on the right side while there was still itching on the left side. The nose was also treated inside and outside with the active cream. Itching decreased drastically already after 50 seconds.

[5] = system: patient suffering from arthritis urica; test: Topical treatment of arthritis urica (Example 9); details: 9% (w/w) in composition 2; right foot, 4 successive treatments with an interval of 10 minutes; person
Protocol: Glucosamine or one or more of its derivatives was added in the appropriate amount to one of the following formulations. The compositions thus obtained were tested as described in the Examples. All percentages are by weight (w/w) unless otherwise indicated. A patient suffering from arthritis urica, and not taking any medication, was treated with composition 2 containing 9% (w/w) glucosamine HCl all over the affected right foot by 4 successive treatments with an interval of 10 minutes.

[6] = system: patient suffering from eczema (atopical) on the arm-bends; test: Topical treatment of atopical eczema (Example 10); details: 8% (w/w) in composition 3; left arm; person
Protocol: Glucosamine or one or more of its derivatives was added in the appropriate amount to one of the following formulations. The compositions thus obtained were tested as described in the Examples. All percentages are by weight (w/w) unless otherwise indicated. A patient suffering from eczema (atopical) (person) on the arm-bends was treated with composition 3 containing 8% (w/w) glucosamine HCl on the left arm and composition 3 on the right arm. Itching decreased drastically after 15 seconds and lasted during 2 hours only on the left arm. From the above it follows that the therapeutical compositions of the invention can be used to alleviate itching and pain which result from a variety of causes. The relief is obtained very quickly and lasts for a considerable period of time.

[7] = system: patient suffering from tendinitis caused by practicing tennis; test: Topical cream treatment of tendinitis caused by tennis (Example 2); details: 5% (w/w) in formulation 2 cream, applied on the skin during 2 minutes; person
Protocol: Glucosamine or one or more of its derivatives was added in the appropriate amount to one of the following formulations. The compositions thus obtained were tested as described in the Examples. All percentages are by weight (w/w) unless otherwise indicated. A patient suffering from tendinitis caused by practicing tennis was treated with formulation 2 containing glucosamine sulphate 5% (w/w). The cream was normally applied on the skin during 2 minutes to allow the penetration. Pain relief occurred already after 50 seconds and lasted for at least 2 hours. After 12 hours the same patient was treated with formulation 2 without glucosamine. There was no pain relief after similar application.

[8] = system: patient suffering from herpes simplex type I infection around the nose showing extensive fissures; test: Topical treatment of herpes simplex type I lesions around the nose (Example 3); details: 3% (w/w) in formulation 3
Protocol: Glucosamine or one or more of its derivatives was added in the appropriate amount to one of the following formulations. The compositions thus obtained were tested as described in the Examples. All percentages are by weight (w/w) unless otherwise indicated. A patient suffering from herpes simplex type I infection around the nose showing extensive fissures was treated with formulation 3 containing 3% glucosamine sulfate (w/w). Already after 30 seconds pain and itching relief occurred and lasted during 3 hours.

[9] = system: patient suffering from pain in the knee caused by a light collision; test: Topical treatment of knee pain after a collision (Example 4); details: 10% (w/w) in formulation 3
Protocol: Glucosamine or one or more of its derivatives was added in the appropriate amount to one of the following formulations. The compositions thus obtained were tested as described in the Examples. All percentages are by weight (w/w) unless otherwise indicated. A patient suffering from pain in the knee caused by a light collision during a car accident was treated with formulation 3 containing 10% (w/w) glucosamine sulfate. Pain relief occurred after 50 seconds and lasted during 3 hours.

[10] = 8% w/w in water (formulation 1), sprayed into the mouth during 10 seconds, person
[11] = spray 9% w/w with 20% glycerol and 10% alcohol in water, same patient 12 hours later

For CC(=O)N[C@H]1C(O)O[C@H](CO)[C@@H](O)[C@@H]1O (stereo partly drawn) [N-acetyl-glucosamine, N-acetyl D-glucosamine], the “duration of pain relief” value [1, 10] was “at least 1,5 hour”, the “time to pain relief after application” value [1, 10] was 20 s and the “time to pain relief” value ([2]; 2 days after the onset of pain, person) was 25 s. For the same molecule, the “pain after repeated treatment” value ([2]; after 5 successive treatments every 2 hours) was “pain was completely reduced”.
In the case of Cl.N[C@H]1C(O)O[C@H](CO)[C@@H](O)[C@@H]1O (stereo partly drawn) [glucosamine HCl, D-glucosamine hydrochloride], the “duration of pain relief” value [1, 11] is reported as “at least 2 hours”, the “time to pain relief after application” value [1, 11] is reported as 36 s and the “relief of itching and pains” value [3] is reported as “always immediate relief of itching and pains”. The “time until itching decreased drastically” value ([4]; nose treated inside and outside) was 50 s, the “time until itching completely disappeared” value ([4]; right side of the forehead, person) was 45 s and the “duration of pain relief” value [5] was 4 h. The pain relief [5] was “Gradually strong pain relief occurred”, the “duration of itching decrease” value [6] was 2 h and the “time until itching decreased drastically” value [6] was 15 s.
For N[C@H]1C(O)O[C@H](CO)[C@@H](O)[C@@H]1O.O=S(=O)(O)O (stereo partly drawn) [glucosamine sulfate, D-glucosamine sulfate], the “duration of pain relief” value [7] was “at least 2 hours”, the “time to pain relief” value [7] was 50 s and the closure of fissures ([8]; after 5 hours) was “most of the fissures were closed”. For the same molecule, the “duration of pain and itching relief” value ([8]; person) was 3 h, the “time to pain and itching relief” value ([8]; person) was 30 s and the “pain after repeated treatment” value ([9]; after 3 new successive treatments every 4 hours) was “the pain was completely gone”. The “duration of pain relief” value ([9]; person) was 3 h and the “time to pain relief” value ([9]; person) was 50 s.
